Earlier results, collected in patent US8680055B2, “Methods for decreasing steroidogenesis in prostate cancer cells” (University of Southern California, priority 2009, dated 2014).

How the values were obtained:
[1] = test system: PCa resistant to multiple hormonal therapies; conditions: chemotherapy-naive men
advanced CRPC = conditions: phase II trials

Q: With `CC(=O)O[C@H]1CC[C@@]2(C)C(=CC[C@@H]3[C@@H]2CC[C@]2(C)C(c4cccnc4)=CC[C@@H]32)C1` [abiraterone acetate] as the compound, how does the “patients with declines in PSA ≧90%” value ([1]; 6 patients) read?
A: 29%

Q: What about the “patients with declines in PSA ≧50%” value ([1]; 12 patients) of the same compound?
A: 57%

Q: And the “patients with declines in PSA ≧30%” value ([1]; 14 patients)?
A: 66%

Q: For `CC(=O)N1CCN(c2ccc(OCC3COC(Cn4ccnc4)(c4ccc(Cl)cc4Cl)O3)cc2)CC1` (centres unmarked) [ketoconazole], which “median duration of response” value (advanced CRPC) is on record?
A: up to 7 months

Q: And the “response rate by PSA working group (PSAWG) criteria” value (advanced CRPC)?
A: 40-62%
